This is an account of results in PubChem BioAssay (NCI).

Test systems include MOLT-4 leukemia; PC-3 prostate; CAKI-1 renal; A549 NSCLC; HS 578T breast; SK-MEL-2 melanoma; UO-31 renal; NCI/ADR-RES ovarian; HCT-116 colon; CCRF-CEM leukemia.
Common to all, as to assay: NCI tumour cell line growth inhibition, 48 h

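Growth conditions: 96-well plates. Treatment: test compound, 48 hours, 5 concentrations. Analysis: linear interpolation between bracketing concentrations; unreached endpoints set to highest concentration. At the GI50, growth is halved. Definition used: TGI = concentration required for complete inhibition of growth.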

Turning to `CCSc1ncc(Br)c(Sc2nc(N)nc3nc[nH]c23)n1`, the GI50 with MOLT-4 leukemia was 3.42 µM; in the experiment with PC-3 prostate, 4.77 µM; in the experiment with CAKI-1 renal, 3.43 µM; in the experiment with A549 NSCLC it was 21 µM; in the experiment on HS 578T breast it was 7.47 µM; with SK-MEL-2 melanoma it was 4.19 µM. For the same molecule, the GI50 was 2.3 µM in the experiment on UO-31 renal, 3.48 µM with NCI/ADR-RES ovarian and 2.86 µM in the experiment with HCT-116 colon. Further, the TGI with MOLT-4 leukemia, in the experiment on PC-3 prostate, in the experiment with CAKI-1 renal, with A549 NSCLC, with HS 578T breast and in the experiment with SK-MEL-2 melanoma was above 100 µM each time. Further, the TGI with UO-31 renal, in the experiment with NCI/ADR-RES ovarian and with HCT-116 colon was above 100 µM each time.

`O=C(N/N=C/c1ccc(F)cc1)c1ccc(C(F)(F)F)nc1Nc1cccc(C(F)(F)F)c1`: the GI50 was 1.57 µM in the experiment on MOLT-4 leukemia; 0.34 µM in the experiment on CAKI-1 renal; 2.29 µM in the experiment with A549 NSCLC; 1.73 µM with HS 578T breast; 2.14 µM with UO-31 renal; 1.28 µM in the experiment with NCI/ADR-RES ovarian. In addition, in the experiment on HCT-116 colon, the GI50 is 0.65 µM. The TGI was 5.5 µM with MOLT-4 leukemia; 2.32 µM with CAKI-1 renal; 6.15 µM in the experiment on A549 NSCLC; 6.87 µM in the experiment on HS 578T breast; 6.69 µM with UO-31 renal; 6.58 µM in the experiment with NCI/ADR-RES ovarian. This molecule had a TGI in the experiment with HCT-116 colon of 2.79 µM.

For the molecule `N#CC(NC(=O)CCl)=C(Cl)Cl`, the GI50 in the experiment with PC-3 prostate is 1.69 µM; with CAKI-1 renal, 1.69 µM; in the experiment on A549 NSCLC, 3.51 µM; in the experiment with HS 578T breast it was 3.46 µM; in the experiment with SK-MEL-2 melanoma it was 2.16 µM; in the experiment on CCRF-CEM leukemia, 0.377 µM. Besides, the GI50 is 1.25 µM in the experiment with UO-31 renal, 2.95 µM in the experiment on NCI/ADR-RES ovarian and 1.02 µM with HCT-116 colon. Moreover, the TGI in the experiment with PC-3 prostate came out at 4.22 µM; in the experiment with CAKI-1 renal it was 3.14 µM; with A549 NSCLC, 13.8 µM; in the experiment with HS 578T breast, 17.1 µM; in the experiment with SK-MEL-2 melanoma it was 5.24 µM; in the experiment on CCRF-CEM leukemia it was 1.79 µM. In addition, the TGI in the experiment on UO-31 renal was determined as 2.56 µM; in the experiment on NCI/ADR-RES ovarian, 16.8 µM; in the experiment with HCT-116 colon, 3.7 µM.

Regarding `Oc1ccccc1C=Nc1nc(OCc2ccccc2)nc2[nH]ncc12`, the GI50 with MOLT-4 leukemia is 21.5 µM; in the experiment on PC-3 prostate, 16.8 µM; in the experiment on CAKI-1 renal, 14.2 µM; in the experiment on A549 NSCLC, 38.7 µM; with HS 578T breast it was 19.2 µM; with SK-MEL-2 melanoma, 32.2 µM. For the same molecule, the GI50 was 30.5 µM in the experiment on UO-31 renal, 28.5 µM in the experiment on NCI/ADR-RES ovarian and 18.4 µM in the experiment with HCT-116 colon. Further, the TGI in the experiment on MOLT-4 leukemia was above 100 µM; in the experiment on PC-3 prostate, 51.4 µM; in the experiment on CAKI-1 renal, 50.5 µM; in the experiment on A549 NSCLC it was above 100 µM; with HS 578T breast, 56.9 µM; with SK-MEL-2 melanoma, above 100 µM. The TGI was above 100 µM in the experiment on UO-31 renal, 78.8 µM in the experiment with NCI/ADR-RES ovarian and 41.9 µM with HCT-116 colon.

With `N/C(=N\C(N)=N\c1nc2ccccc2s1)c1cnccn1`, the GI50 in the experiment with MOLT-4 leukemia is 3.48 µM; with PC-3 prostate, 3.78 µM; with CAKI-1 renal it was 2.14 µM; in the experiment on HS 578T breast it was 4.7 µM; in the experiment with SK-MEL-2 melanoma it was 1.95 µM; in the experiment with CCRF-CEM leukemia it was 3.59 µM. The GI50 was 2.05 µM in the experiment on UO-31 renal and 4.28 µM with NCI/ADR-RES ovarian. Also, the TGI was above 100 µM with MOLT-4 leukemia; above 100 µM with PC-3 prostate; 5.06 µM in the experiment on CAKI-1 renal; above 100 µM in the experiment on HS 578T breast; 4.63 µM with SK-MEL-2 melanoma; above 100 µM in the experiment on CCRF-CEM leukemia. In addition, the figures for the TGI in the experiment with UO-31 renal and in the experiment with NCI/ADR-RES ovarian were 4.87 µM and above 100 µM, respectively.

As to `COC(=O)[C@]1(C)CCC[C@]2(C)[C@@H]1CCC13C[C@@H](C=CO1)[C@@H](C)CC32O` (some centres not stated), the GI50 with MOLT-4 leukemia was 24.5 µM; in the experiment with PC-3 prostate, 38 µM; with CAKI-1 renal, 55.2 µM; with A549 NSCLC, 33.1 µM; with HS 578T breast, 20.7 µM; in the experiment with SK-MEL-2 melanoma, above 100 µM. Also, the GI50 is above 100 µM with UO-31 renal, above 100 µM in the experiment on NCI/ADR-RES ovarian and 7.89 µM in the experiment with HCT-116 colon. In addition, the TGI is above 100 µM with MOLT-4 leukemia; above 100 µM in the experiment on PC-3 prostate; above 100 µM with CAKI-1 renal; above 100 µM with A549 NSCLC; 76.5 µM in the experiment with HS 578T breast; above 100 µM in the experiment with SK-MEL-2 melanoma. In addition, the TGI in the experiment with UO-31 renal, in the experiment with NCI/ADR-RES ovarian and in the experiment with HCT-116 colon was above 100 µM each time.

Regarding `O=C(OC[C@@H]1CO1)c1cccc2c(=O)c3ccccc3[nH]c12`, the GI50 is 0.0531 µM with MOLT-4 leukemia; 0.381 µM with PC-3 prostate; 0.2 µM in the experiment on CAKI-1 renal; 0.468 µM in the experiment on A549 NSCLC; 0.499 µM in the experiment on HS 578T breast; 0.251 µM with SK-MEL-2 melanoma. The GI50 in the experiment on CCRF-CEM leukemia was 0.0896 µM; in the experiment with NCI/ADR-RES ovarian, 0.253 µM; in the experiment with HCT-116 colon, 0.127 µM. In addition, the TGI was above 21.8 µM in the experiment on PC-3 prostate; 0.687 µM with CAKI-1 renal; 5.68 µM in the experiment on A549 NSCLC; 3.78 µM with HS 578T breast; 0.595 µM with SK-MEL-2 melanoma; above 100 µM in the experiment on CCRF-CEM leukemia. The TGI came to 2.08 µM with NCI/ADR-RES ovarian and 10.1 µM in the experiment on HCT-116 colon.

Take `OCC#Cc1ccccc1C#Cc1ccc(C#Cc2ccccc2)cc1`: the GI50 in the experiment with MOLT-4 leukemia was 2.65 µM; in the experiment with PC-3 prostate, 15.1 µM; with CAKI-1 renal, 44.5 µM; in the experiment with A549 NSCLC it was 15.3 µM; in the experiment with HS 578T breast, 31 µM; with SK-MEL-2 melanoma, 51.4 µM. The GI50 in the experiment with UO-31 renal was 28.6 µM; in the experiment on NCI/ADR-RES ovarian it was 17.6 µM; with HCT-116 colon, 16.6 µM. Also, the TGI is 43.5 µM with MOLT-4 leukemia; 34.2 µM with PC-3 prostate; above 100 µM in the experiment on CAKI-1 renal; 33.3 µM with A549 NSCLC; above 100 µM with HS 578T breast; above 100 µM in the experiment on SK-MEL-2 melanoma. Besides, the TGI with UO-31 renal is above 100 µM; in the experiment with NCI/ADR-RES ovarian, 59.1 µM; in the experiment on HCT-116 colon, 32.3 µM.

On to `C[C@]12CCC3=NCCN3C1=CC[C@@H]1[C@@H]2CC[C@@]2(C)[C@H]1CC[C@]2(C)O`, for which the TGI in the experiment on MOLT-4 leukemia was above 100 µM; in the experiment on PC-3 prostate, above 100 µM; in the experiment with CAKI-1 renal, above 100 µM; with A549 NSCLC, above 100 µM; with HS 578T breast, 74.7 µM; with SK-MEL-2 melanoma it was above 100 µM. Moreover, the TGI with UO-31 renal, in the experiment with NCI/ADR-RES ovarian and in the experiment with HCT-116 colon was above 100 µM throughout.

On to `NC(=O)c1ncn(C2OC(CO)C(O)C2O)c1N` (configuration not stated), for which the GI50 with PC-3 prostate, in the experiment on CAKI-1 renal, in the experiment on A549 NSCLC, in the experiment with HS 578T breast, in the experiment with SK-MEL-2 melanoma and in the experiment with UO-31 renal was above 100 µM throughout. Besides, the GI50 in the experiment on NCI/ADR-RES ovarian and in the experiment on HCT-116 colon was above 100 µM throughout. Further, the TGI with PC-3 prostate, in the experiment on CAKI-1 renal, with A549 NSCLC, in the experiment with HS 578T breast, in the experiment with SK-MEL-2 melanoma and in the experiment on UO-31 renal was above 100 µM throughout. For the same molecule, the TGI with NCI/ADR-RES ovarian and in the experiment with HCT-116 colon was above 100 µM in each case.

As to `COc1ccc(OCC(O)CN2CCN(c3ccc(Cl)cc3)CC2)cc1` (configuration not stated), the GI50 in the experiment on MOLT-4 leukemia is above 100 µM; in the experiment on PC-3 prostate it was above 100 µM; in the experiment with CAKI-1 renal, 8.86 µM; in the experiment with A549 NSCLC, above 100 µM; with HS 578T breast it was above 100 µM; in the experiment with SK-MEL-2 melanoma it was above 100 µM. Further, the GI50 with CCRF-CEM leukemia, in the experiment on NCI/ADR-RES ovarian and in the experiment on HCT-116 colon was above 100 µM each time. Moreover, the TGI in the experiment with MOLT-4 leukemia, in the experiment on PC-3 prostate, in the experiment with CAKI-1 renal, with A549 NSCLC, with HS 578T breast and in the experiment with SK-MEL-2 melanoma was above 100 µM each time. The TGI in the experiment on CCRF-CEM leukemia, in the experiment with NCI/ADR-RES ovarian and in the experiment with HCT-116 colon was above 100 µM each time.

With `O=C(Nc1ccc(C(F)(F)F)cc1[N+](=O)[O-])c1cccnc1`, the TGI is above 100 µM in the experiment on MOLT-4 leukemia; 8.11 µM with CAKI-1 renal; above 100 µM in the experiment on A549 NSCLC; above 100 µM in the experiment on HS 578T breast; above 100 µM in the experiment on SK-MEL-2 melanoma; above 100 µM in the experiment on CCRF-CEM leukemia. In addition, the TGI in the experiment with UO-31 renal, with NCI/ADR-RES ovarian and in the experiment with HCT-116 colon was above 100 µM in each case.

For the molecule `COc1ccc(-c2cc(-c3ccccc3)nc(NCCNc3ccnc4cc(Cl)ccc34)n2)cc1`, the GI50 in the experiment on CAKI-1 renal is 1.57 µM; in the experiment on A549 NSCLC, 1.82 µM; in the experiment on HS 578T breast it was 1.81 µM; in the experiment on SK-MEL-2 melanoma, 1.84 µM; in the experiment with CCRF-CEM leukemia, 0.306 µM; in the experiment on UO-31 renal, 1.42 µM. In addition, the GI50 in the experiment with NCI/ADR-RES ovarian is 1.71 µM. For the same molecule, the TGI in the experiment with CAKI-1 renal turned out to be 2.96 µM; in the experiment on A549 NSCLC it was 3.55 µM; in the experiment on HS 578T breast it was 3.78 µM; in the experiment on SK-MEL-2 melanoma, 3.43 µM; with CCRF-CEM leukemia, 1.21 µM; with UO-31 renal, 2.93 µM. Moreover, in the experiment on NCI/ADR-RES ovarian, the TGI is 3.79 µM.

Take `O=c1[nH]c2ccc([N+](=O)[O-])c(Cl)c2c2ccccc12`: the TGI with MOLT-4 leukemia is 31.8 µM; in the experiment with CAKI-1 renal it was 13.2 µM; in the experiment on A549 NSCLC, above 100 µM; in the experiment with HS 578T breast, above 100 µM; in the experiment with SK-MEL-2 melanoma, 24.7 µM; with CCRF-CEM leukemia, 24.1 µM. The TGI in the experiment with UO-31 renal is 21.2 µM; in the experiment on NCI/ADR-RES ovarian, above 100 µM; in the experiment on HCT-116 colon, above 100 µM.
